Measurements: publication PMC12591484 (PLOS One, 2025)
Marks after values point to notes of the source that are not given here.

Experiments:
Experiment in all cases: Drug protection from pCMBS modification (SCAMP)
Type in all cases: cell-based
Design in all cases: key: +: SCAMP is Substituted Cysteine Modification and Protection and is positive when adding anesthetic to cysteine modifier significantly reduces persistent post-exposure effects due to covalent modification; -: Negative results are indicated by “–“ symbols
[1] = biological target: T1, α1β3γ2S301C GABAA receptors (Homo sapiens, UniProt P14867+P18507+P28472, S340C); conditions: results of this study (*)
T1 construct: expressed in transfected cells; host or cells: Xenopus oocytes injected with capped mRNAs mixed 1α:1β:5γ
T1 sequence (P14867 28-456): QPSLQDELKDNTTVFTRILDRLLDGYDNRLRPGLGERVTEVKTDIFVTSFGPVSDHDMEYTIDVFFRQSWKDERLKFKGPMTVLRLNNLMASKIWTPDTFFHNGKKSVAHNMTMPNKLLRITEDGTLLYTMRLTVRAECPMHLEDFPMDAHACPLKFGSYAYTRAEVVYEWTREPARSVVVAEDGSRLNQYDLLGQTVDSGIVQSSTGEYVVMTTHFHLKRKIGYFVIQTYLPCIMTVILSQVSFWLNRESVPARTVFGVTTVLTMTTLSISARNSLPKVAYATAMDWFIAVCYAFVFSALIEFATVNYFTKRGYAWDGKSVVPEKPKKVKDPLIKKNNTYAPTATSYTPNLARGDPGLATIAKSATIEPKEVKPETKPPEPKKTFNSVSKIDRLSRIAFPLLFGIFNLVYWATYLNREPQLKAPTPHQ
T1 sequence (P28472 26-473): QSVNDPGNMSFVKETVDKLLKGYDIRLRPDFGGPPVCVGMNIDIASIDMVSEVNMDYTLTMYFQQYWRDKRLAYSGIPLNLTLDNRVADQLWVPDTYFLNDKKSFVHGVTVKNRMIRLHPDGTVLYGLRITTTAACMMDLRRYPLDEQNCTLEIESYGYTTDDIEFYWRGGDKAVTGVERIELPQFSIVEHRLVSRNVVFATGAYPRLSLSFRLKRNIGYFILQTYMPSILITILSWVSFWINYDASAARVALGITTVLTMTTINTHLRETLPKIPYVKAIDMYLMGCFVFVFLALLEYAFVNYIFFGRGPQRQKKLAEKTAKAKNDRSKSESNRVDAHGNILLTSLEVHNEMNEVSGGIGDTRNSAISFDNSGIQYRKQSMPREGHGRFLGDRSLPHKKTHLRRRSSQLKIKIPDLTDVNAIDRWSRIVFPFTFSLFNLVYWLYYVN
T1 sequence (P18507 40-475 S340C): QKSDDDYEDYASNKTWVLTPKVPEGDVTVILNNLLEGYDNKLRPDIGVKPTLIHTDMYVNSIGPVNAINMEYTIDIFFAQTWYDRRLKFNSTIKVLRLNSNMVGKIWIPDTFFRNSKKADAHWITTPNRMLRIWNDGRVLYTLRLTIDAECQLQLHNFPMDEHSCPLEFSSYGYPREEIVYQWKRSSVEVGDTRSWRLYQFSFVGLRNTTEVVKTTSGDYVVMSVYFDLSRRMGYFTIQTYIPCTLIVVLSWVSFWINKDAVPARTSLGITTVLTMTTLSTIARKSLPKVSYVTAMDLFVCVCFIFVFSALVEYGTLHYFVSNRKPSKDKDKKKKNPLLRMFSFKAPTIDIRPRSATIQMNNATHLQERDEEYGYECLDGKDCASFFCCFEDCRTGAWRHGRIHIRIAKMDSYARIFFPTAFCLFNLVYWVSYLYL
Description: (§1) Experiments were performed in ND-96 buffer at room temperature (20–22°C). Oocytes were placed in a low-volume (30µl) flow chamber and impaled with borosilicate microelectrodes filled with 3M KCl (resistance 0.5–3 MΩ) and voltage-clamped at −50 mV (model OC-725C; Warner Instruments, Hamden, CT, USA). Superfusate solutions in ND-96 were delivered at 2 ml/min from glass syringe reservoirs via computer-controlled valves (VC-8; Warner Instruments), a micro-manifold (ALA-VM8; ALA Scientific Instruments, Farmingdale, NY, USA), and PTFE tubing. Currents were digitized at 200 Hz on a computer running ClampEx v8.0 software (Molecular Devices, San Jose, CA, USA). Digitized traces were filtered with a 10-Hz low-pass Bessel function, leak corrected and analyzed for peak amplitude off-line using Clampfit v8 software (Molecular Devices).
(§2) Drug protection from pCMBS modification was assessed under pCMBS exposure conditions that produced approximately half of the maximal modification ratio for each mutant receptor, and a least a value of 3. This approach balanced the magnitude of functional modification signals (smaller with less pCMBS exposure) against the challenge of using a reversibly bound ligand to competitively block an irreversible covalent cysteine-modifying reaction. […] Each oocyte was used in a single SCAMP experiment. […] Etomidate was used as a positive control for anesthetic protection in α1M236C and β3M286C mutants and as a negative control in α1S270C, α1A291C, β3L231C, γ2S301C, γ2I242C, and γ2L246C mutants. R-mTFD-MPAB was used as a positive control in α1S270C, α1A291C, β3L231C, and γ2LS301C mutants and as a negative control in α1M236C and β3M286C mutants. For each cysteine mutant and protective drug combination, five oocytes were studied.
(§3) Non-linear least squares fits and statistical analyses were performed in Prism 10.4.0. (GraphPad Software, San Diego, CA, USA). […] Protection (steric inhibition of pCMBS modification) was inferred when anesthetics produced significant reductions in modification ratios relative to control (no anesthetic) values. The statistical significance threshold was p < 0.05.

[2] = biological target: T2, α1β3M286Cγ2L GABAA receptors (Homo sapiens, UniProt P14867+P18507+P28472, M311C); conditions: results of this study (*); etomidate cell also cites [16]
T2 construct: expressed in transfected cells; host or cells: Xenopus oocytes injected with capped mRNA, 1α:1β:5γ
T2 sequence (P28472 26-473 M311C, one chain of several): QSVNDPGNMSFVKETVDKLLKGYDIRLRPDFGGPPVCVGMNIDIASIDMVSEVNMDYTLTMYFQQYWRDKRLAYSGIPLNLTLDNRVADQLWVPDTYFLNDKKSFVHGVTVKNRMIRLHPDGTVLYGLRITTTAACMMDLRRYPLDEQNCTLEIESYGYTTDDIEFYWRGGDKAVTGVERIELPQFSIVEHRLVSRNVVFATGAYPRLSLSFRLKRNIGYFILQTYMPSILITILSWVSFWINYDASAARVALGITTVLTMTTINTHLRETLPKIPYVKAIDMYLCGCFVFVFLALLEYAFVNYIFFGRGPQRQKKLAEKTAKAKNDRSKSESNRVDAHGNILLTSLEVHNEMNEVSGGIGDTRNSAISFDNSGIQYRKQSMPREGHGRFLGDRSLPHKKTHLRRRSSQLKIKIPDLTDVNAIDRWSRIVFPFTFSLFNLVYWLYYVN
T2 sequence (P18507 40-475, one chain of several): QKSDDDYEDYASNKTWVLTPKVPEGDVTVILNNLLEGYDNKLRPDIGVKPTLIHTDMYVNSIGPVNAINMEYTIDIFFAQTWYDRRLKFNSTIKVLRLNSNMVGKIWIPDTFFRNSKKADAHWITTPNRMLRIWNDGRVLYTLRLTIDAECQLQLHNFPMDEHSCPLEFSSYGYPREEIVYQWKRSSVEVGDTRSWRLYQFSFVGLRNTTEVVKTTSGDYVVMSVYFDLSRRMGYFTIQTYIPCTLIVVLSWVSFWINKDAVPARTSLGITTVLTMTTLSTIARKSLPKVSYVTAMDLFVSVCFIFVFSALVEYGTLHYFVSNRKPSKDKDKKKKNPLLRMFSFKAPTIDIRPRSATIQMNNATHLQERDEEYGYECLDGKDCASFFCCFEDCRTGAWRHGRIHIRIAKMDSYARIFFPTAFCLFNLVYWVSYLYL
Description: as §1, §2, §3

[3] = biological target: T3, α1M236Cβ3γ2L GABAA receptors (Homo sapiens, UniProt P14867+P18507+P28472, M263C); conditions: results of this study (*); some cells also cite [9]
T3 construct: expressed in transfected cells; host or cells: Xenopus oocytes injected with capped mRNA, 1α:1β:5γ
T3 sequence (P14867 28-456 M263C, one chain of several): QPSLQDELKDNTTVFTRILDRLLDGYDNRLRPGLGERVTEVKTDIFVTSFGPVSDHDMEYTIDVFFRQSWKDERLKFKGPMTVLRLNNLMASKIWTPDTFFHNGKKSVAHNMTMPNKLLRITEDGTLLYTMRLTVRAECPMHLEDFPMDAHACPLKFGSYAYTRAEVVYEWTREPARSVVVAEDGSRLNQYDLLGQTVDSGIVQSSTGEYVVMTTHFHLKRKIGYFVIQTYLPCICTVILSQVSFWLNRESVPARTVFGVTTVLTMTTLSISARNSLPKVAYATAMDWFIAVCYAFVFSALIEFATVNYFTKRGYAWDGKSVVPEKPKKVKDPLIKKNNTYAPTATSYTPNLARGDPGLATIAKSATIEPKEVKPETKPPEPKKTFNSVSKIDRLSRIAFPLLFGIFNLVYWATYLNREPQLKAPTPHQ
T3 sequence (P18507 40-475, one chain of several): as the sequence (P18507 40-475, one chain of several) above
Description: as §1, §2, §3

| Compound | SCAMP result, γ2+ (M2, M3) S301 [1] | SCAMP result, β3+ (M2, M3) M286 [2] | SCAMP result, α1– (M1) M236 [3] |
| --- | --- | --- | --- |
| C=CCC1(c2cccc(C3(C(F)(F)F)N=N3)c2)C(=O)NC(=O)N(C)C1=O (stereo not drawn) [R-mTFD-MPAB, R-5-allyl-1-methyl-5-(m-trifluoromethyl-diazirynylphenyl) barbituric acid] | +* | – | – |
| CCOC(=O)c1cncn1[C@H](C)c1ccccc1 [etomidate, R-etomidate] | – | +^[16], * | +^[9], * |
